For assay [1], the system named is human foreskin fibroblast cells (HFF cells). The experiment in a line: Repeated stimulation of collagen I production. The assay is classed as cell-based. To be noted: for total collagen I, stimulated twice versus once within a seven day culture period: day 0-2 plus day 2-7 versus day 0-7; for collagen I production after a second stimulation relative to the first stimulation: restimulated after 48 hours, further 5 days. How it is done: Experiments were performed to ensure human fibroblast cells could be stimulated to increase ECM protein production by proteins having peroxidase activity after more than one application of the proteins having peroxidase activity. The capacity to respond repeatedly to the proteins having peroxidase activity provides important utility for the generation of ECM in vitro, particularly given that spent culture media needs to be replaced on a regular basis to maintain the viability of the cells. These experiments were performed using human foreskin fibroblast cells (HFF cells) seeded into 96 well plates at a density of 1.2×10^4 cells/well and cultured for one week in 10% fetal bovine serum/Dulbecco's minimum essential media (10% FBS/DMEM) at 37° C. and 5% CO2 (as described in Example 3). The confluent cells were then starved overnight in serum free DMEM and triplicate wells treated for six hours with MP, ARP and LP as representative proteins having peroxidase activity or the control agents transforming growth factor β2 (TGFβ2; R&D Systems) and 10% FBS (JRH BioSciences). After 48 hours, the conditioned media was collected for measurement of collagen I (as a representative ECM protein) and the cells either restimulated for six hours with fresh solutions containing proteins having peroxidase activity or control agents or the media was replaced with fresh serum free DMEM. The cells were cultured for a further 5 days after which the media was collected a second time for the measurement of collagen I. Media was also collected from replicate wells treated at the start of the experiment and left for 7 days (total culture period) for comparison.

Another assay relates to human skin. Kind of assay: Collagen I and III immunohistochemistry in ex vivo human skin (Franz cell). To be noted: intradermal injection 100 μl, 72 hours. On the procedure:
To confirm proteins with peroxidise activity can stimulate ECM production in human skin, studies were performed on ex vivo skin collected from tissue reduction surgery. The studies were undertaken using a modification of the OECD Test Guideline 428 (2004) Skin Absorption: in vitro method. Freshly excised human skin was collected in a
Hanks balanced salt solution (HBSS) and after being thoroughly washed in sterile, colour free DMEM/F12 media (Dulbecco's Modified Eagle Medium/Hams F12, Invitrogen) to remove surface debris, the subcutaneous fat layer was removed. Circles of full-thickness skin 15 mm in diameter were cut and placed epidermis side up on vertical glass diffusion cells of a Franz cell diffusion system (Crown Glass Co, NJ, USA). The skin was secured between two clamped ground glass joints and allowed to equilibrate and hydrate for approximately 30 minutes with the receptor chambers of the diffusion cells containing colour-free DMEM/F12+1% (v/v) of an antibiotic mix (200 mM L-glutamine, 10,000 units penicillin, 10 mg streptomycin per ml; Sigma, USA). The temperature of the jacketed diffusion cells was maintained at 34° C.±1° C. and the contents were constantly stirred using a mini magnetic stirrer. Proteins with peroxidase activity or a control were injected intradermally into the skin discs in a volume of 100 μl using a 27 gauge needle. After 72 hours the skin discs were removed and bisected with one half fixed in 4% buffered formalin for histological assessment and the other half snap frozen in liquid nitrogen for immunohistochemical detection of collagen I and III protein within the dermis. Frozen skin pieces were processed into cryoblocks, cut onto slides and fixed in acetone/methanol. All slides were blocked with 2% (w/v) bovine serum albumin (BSA) in HBSS and then incubated with either anti-human collagen type I or III primary antibodies (Chemical Credential, ICN or DakoCytomation respectively). The secondary antibody was biotinylated Multi-Link (DakoCytomation) with detection by streptavidin-biotinylated alkaline phosphatase (DakoCytomation). Visualisation was achieved by incubating each section with Naphthol AS/MX phosphate/fast red substrate containing 5 mM levamisole (Sigma). After washing, slides were counter stained with Mayer's Haematoxylin and assessed for collagen expression.

In assay [2] the test system is fibroblast cells isolated from an adult subject. The experiment in a line: Total protein incorporated into the extracellular matrix (silver stained gel). The assay is classed as cell-based, human. To be noted: 10% FBS + 50 ug/ml ascorbic acid, 72 hours. On the procedure: To ensure the soluble ECM proteins stimulated by the proteins with peroxidase activity are incorporated into the extracellular matrix generated by human fibroblast cells, given that this is a key requirement for the regeneration of collagen-rich tissues like skin and other organs and tissues, total proteins were extracted from the cell matrix. In these experiments, six well culture plates were seeded with fibroblast cells isolated from an adult subject at a density of 1.5×10^5 cells/well and after one week of culture, cells were treated with proteins with peroxidase activity in media containing 10% FBS and with the addition of ascorbic acid (vitamin C) which is a well known cofactor important for the cross linking of collagen molecules to generate polymeric fibres. Wells were supplemented daily to provide a final concentration of 50 ug/ml ascorbic acid in the media. After 72 hours the cell media was removed, the wells washed with warm PBS and the cell matrix extracted.
The total protein content of the cell matrix was solubilised by the addition of 500 ul/well of RIPA buffer (25 mM Tris-HCl pH7.4; 150 mM NaCl; 1% Triton X-100; 0.5% Na deoxycholate; 0.05% SDS). The cell matrix was scraped off the bottom of each well and the plates placed on a shaking platform for 10 minutes. The extracts were transferred to eppendorf tubes, vortexed vigorously and centrifuged at 12,000 rpm, 4° C. for 5 minutes. The DNA pellet was visualised and gently removed and the samples stored at −80° C. until assessment.
Total cell extracts were assessed by polyacrylamide gel electrophoresis. Samples were prepared by adding an appropriate amount of reduced loading buffer to neat cell extracts and boiling for 5 minutes. Samples were then loaded onto a 4-12% BisTris gradient gel (Invitrogen) together with molecular weight markers (Magic Mark XP and SeeBlue prestained markers; Invitrogen) and resolved for […] at 150V in a Novex mini-cell system (Invitrogen) using NuPage MES SDS running buffer. […]

Assay [3] has as its system adult primary fibroblast cells and HFF cells. Kind of assay: Organisation of collagen fibers on coverslips (collagen I immunohistochemistry). The class given is cell-based, human. To be noted: treated up to 7 days. On the procedure:
ECM, rather than disorganized ECM which would increase the risk of scar formation within the dermis and contribute to the generation of structurally and functionally impaired replacement tissue, additional experiments were performed to visualize the collagen fibers formed by fibroblast cells stimulated with proteins having peroxidase activity. These experiments involved growing adult primary fibroblast cells and HFF cells on microscope slide coverslips placed into each well of six well tissue culture plates. Each well containing a coverslip was seeded with 1.5×10^5 cells and after one week of culture, the cells were treated with a range of proteins having peroxidase activity for up to 7 days. At the end of the experiment, the cell media was removed and the cells and cell-associated ECM fixed by the addition of 10% formalin. The coverslips were removed from the tissue culture plate and stained immunohistochemically for collagen I using the method outlined in Example 3 for the SMA immunohistochemistry with the variation that 5 μg/ml rabbit anti Collagen-I (Rocklands Immunochemicals) was used as the primary antibody.

Regarding Arthromyces ramosus peroxidase [ARP], in assay [1], the “total collagen I, stimulated twice versus once within a seven day culture period” value was “markedly greater total collagen I levels” and the “collagen I production after a second stimulation relative to the first stimulation” value is listed as “produced a greater response when stimulated a second time”.

Turning to lactoperoxidase [LP], in assay [1], the “total collagen I, stimulated twice versus once within a seven day culture period” value is reported as “markedly greater total collagen I levels” and the “collagen I production after a second stimulation relative to the first stimulation” value is listed as “at least equivalent to that obtained with the first stimulation”. Besides, in the assay on human skin, the “collagen III immuno-reactivity” value is listed as “did not appear to affect collagen III immuno-reactivity” and the “staining intensity for collagen I” value was “increased staining intensity for collagen I”. In assay [2], the “proteinaceous material in the extracellular matrix versus untreated control cells” value is “produced much more proteinaceous material”.

Take microperoxidase [MP]: the “collagen fibers in the cell-associated ECM” value in assay [3] is “collagen was not the major ECM protein deposited”. For the same molecule, in assay [1], the “total collagen I, stimulated twice versus once within a seven day culture period” value is recorded as “responded in a similar way to cells treated with TGFβ2” and the “collagen I production after a second stimulation relative to the first stimulation” value is given as “at least equivalent to that obtained with the first stimulation”. Further, in the assay with human skin, the “collagen III immuno-reactivity” value is “increased collagen III staining” and the “staining intensity for collagen I” value is reported as “increased staining intensity for collagen I”. Also, in assay [2], the “proteinaceous material in the extracellular matrix versus untreated control cells” value is reported as “produced much more proteinaceous material”.

In the case of soy bean peroxidase [SBP], the “proteinaceous material in the extracellular matrix versus untreated control cells” value in assay [2] is reported as “produced much more proteinaceous material”.

B1: horse radish peroxidase (protein, UniProt P00433 31-338, looked up)
Peroxidase C1A: QLTPTFYDNSCPNVSNIVRDTIVNELRSDPRIAASILRLHFHDCFVNGCDASILLDNTTSFRTEKDAFGNANSARGFPVIDRMKAAVESACPRTVSCADLLTIAAQQSVTLAGGPSWRVPLGRRDSLQAFLDLANANLPAPFFTLPQLKDSFRNVGLNRSSDLVALSGGHTFGKNQCRFIMDRLYNFSNTGLPDPTLNTTYLQTLRGLCPLNGNLSALVDFDLRTPTIFDNKYYVNLEEQKGLIQSDQELFSSPNATDTIPLVRSFANSTQTFFNAFVEAMDRMGNITPLTGTQGQIRLNCRVVNSNS
B1: the “collagen fibers in the cell-associated ECM” value in assay [3] is “strongly stained, parallel collagen fibers”. For the same molecule, in the assay with human skin, the “collagen III immuno-reactivity” value was “increased collagen III staining” and the “staining intensity for collagen I” value is recorded as “increased staining intensity for collagen I”.

The values above are taken from patent US20100239556A1, “PROMOTING ECM PRODUCTION BY FIBROBLAST CELLS AND/OR PROMOTING MIGRATION OF FIBROBLAST CELLS IN A BIOLOGICAL SYSTEM” (TGR BioScience Pty Ltd., priority 2006, published 2010).
